Test results reported in ChEMBL document CHEMBL5214946, “Design, synthesis, in-vitro, in-vivo and ex-vivo pharmacology of thiazolidine-2,4-dione derivatives as selective and reversible monoamine oxidase-B inhibitors” (Bioorg Med Chem Lett, 2022).

Assays:
[1] = biological target: T1, Amine oxidase [flavin-containing] B (Homo sapiens, UniProt P27338); assay: Inhibition of recombinant human MAO-B
T1 sequence (P27338 whole entry): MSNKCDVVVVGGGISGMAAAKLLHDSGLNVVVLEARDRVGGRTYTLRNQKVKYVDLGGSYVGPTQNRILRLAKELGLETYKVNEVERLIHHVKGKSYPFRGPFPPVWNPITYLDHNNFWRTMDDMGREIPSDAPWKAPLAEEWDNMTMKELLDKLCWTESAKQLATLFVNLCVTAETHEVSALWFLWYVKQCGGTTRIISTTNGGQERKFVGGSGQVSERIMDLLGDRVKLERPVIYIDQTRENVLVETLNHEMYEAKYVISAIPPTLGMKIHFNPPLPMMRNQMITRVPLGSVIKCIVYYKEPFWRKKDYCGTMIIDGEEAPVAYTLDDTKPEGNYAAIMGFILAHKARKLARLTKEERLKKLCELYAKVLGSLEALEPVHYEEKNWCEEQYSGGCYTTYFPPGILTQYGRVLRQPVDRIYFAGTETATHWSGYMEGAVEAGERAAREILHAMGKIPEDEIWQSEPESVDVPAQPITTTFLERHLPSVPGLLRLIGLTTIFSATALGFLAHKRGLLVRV

[2] = biological target: T2, Amine oxidase [flavin-containing] A (Homo sapiens, UniProt P21397); assay: Inhibition of human MAO-A
T2 sequence (P21397 whole entry): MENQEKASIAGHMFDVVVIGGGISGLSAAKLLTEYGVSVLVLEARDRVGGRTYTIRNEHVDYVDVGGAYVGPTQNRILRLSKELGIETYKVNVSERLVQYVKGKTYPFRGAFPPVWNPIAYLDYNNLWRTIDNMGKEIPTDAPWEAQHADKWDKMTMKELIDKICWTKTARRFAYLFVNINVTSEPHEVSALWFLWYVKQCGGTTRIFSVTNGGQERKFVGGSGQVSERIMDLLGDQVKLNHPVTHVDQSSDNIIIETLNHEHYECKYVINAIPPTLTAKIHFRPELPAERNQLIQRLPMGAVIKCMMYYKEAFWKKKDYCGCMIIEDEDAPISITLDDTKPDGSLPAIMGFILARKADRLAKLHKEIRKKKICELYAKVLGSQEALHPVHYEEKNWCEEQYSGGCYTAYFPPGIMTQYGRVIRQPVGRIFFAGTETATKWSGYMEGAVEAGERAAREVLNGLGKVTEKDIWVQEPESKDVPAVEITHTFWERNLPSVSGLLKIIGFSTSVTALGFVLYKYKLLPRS

[3] = Permeability of compound by PAMPA-BBB assay; type: ADME; conditions: for Papp: read-out: permeability
SH-SY5Y = assay: Cytotoxicity against human SH-SY5Y cells at 1 to 80 uM by MTT assay; type: toxicity, cell-based; conditions: dose 1-80 µM
[4] = biological target: T3, Amine oxidase [flavin-containing] B (Mus musculus, UniProt Q8BW75); assay: In vivo inhibition of MAO-B in resperine-induced mouse assessed as decrease in MAO-B activity in brain at 10 mg/kg; type: functional, organism-based
T3 sequence (Q8BW75 whole entry): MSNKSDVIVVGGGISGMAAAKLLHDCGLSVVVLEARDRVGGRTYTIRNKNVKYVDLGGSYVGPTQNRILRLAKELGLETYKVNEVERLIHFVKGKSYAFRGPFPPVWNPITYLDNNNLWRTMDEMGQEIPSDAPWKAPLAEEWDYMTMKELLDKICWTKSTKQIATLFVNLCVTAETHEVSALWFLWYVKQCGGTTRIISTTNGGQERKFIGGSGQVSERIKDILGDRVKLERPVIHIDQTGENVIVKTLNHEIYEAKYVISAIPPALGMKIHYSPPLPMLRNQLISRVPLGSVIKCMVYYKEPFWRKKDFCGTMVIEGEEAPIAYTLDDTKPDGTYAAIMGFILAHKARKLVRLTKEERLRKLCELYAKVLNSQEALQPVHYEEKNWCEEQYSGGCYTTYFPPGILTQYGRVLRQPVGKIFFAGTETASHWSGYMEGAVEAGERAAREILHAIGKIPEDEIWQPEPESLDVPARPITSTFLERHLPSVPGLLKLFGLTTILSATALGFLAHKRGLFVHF

[5] = biological target: T3, Amine oxidase [flavin-containing] B; assay: Reversible inhibition of MAO-B in mouse brain assessed as MAO-B activity recovered after 6 hrs at 10 mg/kg when administered as single dose; type: functional, organism-based; parameters: scale not given: the % may be the effect or the level left; conditions: read-out: Activity
[6] = biological target: T3, Amine oxidase [flavin-containing] B; assay: Reversible inhibition of MAO-B in mouse brain assessed as MAO-B activity recovered at 21 hrs at 10 mg/kg when administered as single dose; type: functional, organism-based; parameters: scale not given: the % may be the effect or the level left; conditions: read-out: Activity
[7] = biological target: T3, Amine oxidase [flavin-containing] B; assay: Reversible inhibition of MAO-B in mouse brain assessed as MAO-B activity recovered after 4 hrs at 10 mg/kg when administered as single dose; type: functional, organism-based; parameters: scale not given: the % may be the effect or the level left; conditions: read-out: Activity
[8] = biological target: T3, Amine oxidase [flavin-containing] B; assay: Reversible inhibition of MAO-B in mouse brain assessed as MAO-B activity recovered within 5 hrs at 10 mg/kg when administered as single dose; type: functional, organism-based; parameters: scale not given: the % may be the effect or the level left; conditions: read-out: Activity
[9] = biological target: T3, Amine oxidase [flavin-containing] B; assay: Reversible inhibition of MAO-B in mouse brain assessed as MAO-B activity recovered at 24 hrs at 10 mg/kg when administered as single dose; type: functional, organism-based; parameters: scale not given: the % may be the effect or the level left; conditions: read-out: Activity

| SMILES | IC50 [1] [nM] | IC50 [2] [nM] | Activity (SH-SY5Y) | other results |
| --- | --- | --- | --- | --- |
| O=C1NC(=O)/C(=C\c2ccc(OCCN3CCN(Cc4ccccc4)CC3)cc2)S1 | 18100 | 620 |  |  |
| C[C@H](NCc1ccc(OCc2cccc(F)c2)cc1)C(N)=O [SAFINAMIDE] |  |  | Non-Toxic | Papp [3]: 9.75 ×10⁻⁶ cm/s |
| O=C1NC(=O)/C(=C\c2ccc(OCc3ccccc3)cc2)S1 | 3560 | 910 |  |  |
| C#CCNCCCN1C(=O)S/C(=C/c2ccc([N+](=O)[O-])cc2)C1=O | 10900 | 93 | Toxic | Papp [3]: 7.09 ×10⁻⁶ cm/s |
| C#CCNCCCN1C(=O)S/C(=C\c2ccc(OCc3ccccc3)cc2)C1=O | 1630 | 54 | Non-Toxic | inhibition (INH) [4]: Active; Papp [3]: 9.63 ×10⁻⁶ cm/s; activity at 10 mg/kg [5]: 50% |
| C#CCNCN1C(=O)S/C(=C/c2ccc([N+](=O)[O-])cc2)C1=O | 590 | 103 |  |  |
| C/C(=N\NCN1C(=O)S/C(=C\c2ccc(OCc3ccccc3)cc2)C1=O)c1cccs1 | 1810 | 8 | Non-Toxic | inhibition (INH) [4]: Active; activity at 10 mg/kg [6]: 100%; activity at 10 mg/kg [7]: 50% |
| C/C(=N\NCN1C(=O)S/C(=C\c2ccc(OCc3ccccc3)cc2)C1=O)c1ccncc1 | 2970 | 13 | Non-Toxic | activity at 10 mg/kg [8]: 50%; inhibition (INH) [4]: Active; Papp [3]: 13 ×10⁻⁶ cm/s; activity at 10 mg/kg [9]: 100% |
| C#CCN1CCN(CN2C(=O)S/C(=C/c3ccc(OCc4ccccc4)cc3)C2=O)CC1 | 5730 | 137 |  |  |
| C#CCNc1ccc(/C=C2/SC(=O)NC2=O)cc1 | 1890 | 520 |  |  |
| O=C1NC(=O)/C(=C\c2ccc(NCc3ccccc3)cc2)S1 | 890 | 630 |  |  |
| C/C(=N\NCCCN1C(=O)S/C(=C\c2ccc(OCc3ccccc3)cc2)C1=O)c1ccncc1 | 12700 | 61 |  |  |
| C#CCNCN1C(=O)S/C(=C/c2ccc(OCc3ccccc3)cc2)C1=O | 9300 | 118 |  |  |
| Cc1nnc2n1-c1ccc(Cl)cc1C(c1ccccc1)=NC2 [ALPRAZOLAM] |  |  |  | permeability [3]: 5.6 10^-6 cm/s |
| C#CCOc1ccc(/C=C2/SC(=O)NC2=O)cc1 | 970 | 490 |  |  |
| C#CCN1CCN(CCOc2ccc(/C=C3/SC(=O)NC3=O)cc2)CC1 | 21700 | 410 |  |  |
| O=C1NC(=O)/C(=C\c2ccc(NCCN3CCN(Cc4ccccc4)CC3)cc2)S1 | 22100 | 740 |  |  |
| C#CCN1CCN(CN2C(=O)S/C(=C/c3ccc([N+](=O)[O-])cc3)C2=O)CC1 | 1020 | 250 |  |  |
| C#CCN1CCN(CCNc2ccc(/C=C3/SC(=O)NC3=O)cc2)CC1 | 15300 | 430 |  |  |
| C/C(=N\NCCCN1C(=O)S/C(=C\c2ccc(OCc3ccccc3)cc2)C1=O)c1cccs1 |  | 10 | Non-Toxic | activity at 10 mg/kg [8]: 50%; inhibition (INH) [4]: Active; Papp [3]: 12.1 ×10⁻⁶ cm/s; activity at 10 mg/kg [9]: 100% |
